# How the values were obtained:
# 10T1/2 tva-H1047R = experiment: Impedance-based TCRP of 10T1/2 tva-H1047R cells expressing human p110α (H1047R); assay type: cell-based, mouse
# Procedure: (§4) The cell index (CI) was normalized at time of compound addition.
# A mouse fibroblast 10T1/2 expressing the cell-surface receptor TVA, which is specific for subgroup-A avian retroviruses was used. […] A549 is a human lung cancer cell line expressing wild-type p110α. T47D and BT20 are human breast cancer cell lines expressing mutant p110α (T47D) and p110α (P539R/H1047R), respectively.
# (§5) Then the normal growth medium (10% FBS) was exchanged with medium containing 0% FBS. The cells were incubated for additional 5 hours before compound treatment. A PI3K inhibitor (PI103) at different concentrations in DMSO was added into wells following the incubation period. The cell status was monitored prior to and after the compound addition using xCelligence system (Roche applied sciences). […] Cell index of the cells treated with solvent DMSO control was used as baseline. The Cell index was normalized against the cell index values at a time point just before compound addition.
# 10T1/2 tva = experiment: Impedance-based TCRP of control cell line 10T1/2 tva; parameters: species or system mouse; settings: 10T1/2 tva control cell line; from 0 to 10 uM
# Procedure: as §4, §5
# A549 = experiment: Impedance-based TCRP of A549 cells (wild-type p110α) to PI3K inhibitor; assay type: cell-based, human; settings: A549 expressing wild-type p110α; serum starved 5 hour
# Procedure: (§1) Cells were serum starved for 5 hour. The cell index was normalized at time of compound addition. At the indicated time point of treatment, increasing concentrations of PI103 (0-10 uM) was added to the cells and the cell responses were monitored.
# (§2) Cell lines. A mouse fibroblast 10T1/2 expressing the cell-surface receptor TVA, which is specific for subgroup-A avian retroviruses was used. The cells were transformed by infection with human p110α (H1047R)-expressing avian retrovirus and are referred to as 10T1/2 tva-H1047R. A549 is a human lung cancer cell line expressing wild-type p110α. T47D and BT20 are human breast cancer cell lines expressing mutant p110α (T47D) and p110α (P539R/H1047R), respectively.
# (§3) To test if the characteristic TCRP is specific to PI3K inhibition, we also test the cell responses in several other cell lines (FIG. 35). […] Such characteristic TCRP could be used for identifying or screening unknown biologically active agents which may act as PI3K inhibitors.
# T47D = experiment: Impedance-based TCRP of T47D cells (mutant p110α) to PI3K inhibitor; assay type: cell-based; settings: Homo sapiens, 10 min
# Procedure: as §1, §2, §3
# BT20 = experiment: Impedance-based TCRP of BT20 cells (p110α P539R/H1047R) to PI3K inhibitor; assay type: cell-based; settings: Homo sapiens, BT-20, 10 min
# Procedure: as §1, §2, §3
# AKT phosphorylation = experiment: Western analysis of PI3K downstream signal in 10T1/2 tva-H1047R and 10T1/2 tva; assay type: cell-based, mouse; settings: 10 uM; treated for 2 hours; serum starved 5 hours
# Excerpt: Cells were lysed and subject to Western analyses. […] Equal intensity of GAPDH bands indicated equal protein loading.
smiles,measurement,setting,value
Oc1cccc(-c2nc(N3CCOCC3)c3oc4ncccc4c3n2)c1 [PI103],TCRP (Cell Index response),"10T1/2 tva-H1047R; 10T1/2 tva-H1047R in the presence of siRNA targeting human p110α, within 10 min of compound addition",no sharp decrease
same,TCRP (Cell Index response),"10T1/2 tva-H1047R; 10T1/2 tva-H1047R, serum starved, from 0 to 10 uM",immediate decrease
same,IC50,"10T1/2 tva-H1047R; Mus musculus, 5 h, read-out: IC50 (TCRP)",89 nM
same,TCRP (Cell Index response),10T1/2 tva,did not show a clear dose response
same,TCRP (Cell Index response),A549,did not show clear dose response
same,IC50,T47D,126 nM
same,IC50,BT20,165 nM
same,"PI3K downstream signal (AKT phosphorylation), Western",AKT phosphorylation,efficiently inhibited
